Test results as given in PubChem BioAssay AID1259407 (Chemical Carcinogenesis Research Information System (CCRIS), 2018).
Calls of active or inactive are those of the source. The rule behind the calls is not given here.

Tested on: CCRIS mutagenicity, Ames/micronucleus/aberration tests
Test: CCRIS mutagenicity studies
[1] = Test System: AMES SALMONELLA TYPHIMURIUM, Strain/Indicator: TA98, Metabolic Activation: HAMSTER, LIVER, S-9, AROCLOR 1254 (10%), Method: PREINCUBATION
[2] = Test System: AMES SALMONELLA TYPHIMURIUM, Strain/Indicator: TA98, Metabolic Activation: NONE, Method: PREINCUBATION
[3] = Test System: AMES SALMONELLA TYPHIMURIUM, Strain/Indicator: TA98, Metabolic Activation: RAT, LIVER, S-9, AROCLOR 1254, Method: PREINCUBATION
[4] = Test System: AMES SALMONELLA TYPHIMURIUM, Strain/Indicator: TA100, Metabolic Activation: HAMSTER, LIVER, S-9, AROCLOR 1254 (10%), Method: PREINCUBATION
[5] = Test System: AMES SALMONELLA TYPHIMURIUM, Strain/Indicator: TA100, Metabolic Activation: NONE, Method: PREINCUBATION
[6] = Test System: AMES SALMONELLA TYPHIMURIUM, Strain/Indicator: TA100, Metabolic Activation: RAT, LIVER, S-9, AROCLOR 1254 (10%), Method: PREINCUBATION
[7] = Test System: AMES SALMONELLA TYPHIMURIUM, Strain/Indicator: TA1535, Metabolic Activation: HAMSTER, LIVER, S-9, AROCLOR 1254 (10%), Method: PREINCUBATION
[8] = Test System: AMES SALMONELLA TYPHIMURIUM, Strain/Indicator: TA1535, Metabolic Activation: NONE, Method: PREINCUBATION
[9] = Test System: AMES SALMONELLA TYPHIMURIUM, Strain/Indicator: TA1535, Metabolic Activation: RAT, LIVER, S-9, AROCLOR 1254 (10%), Method: PREINCUBATION
[10] = Test System: AMES SALMONELLA TYPHIMURIUM, Strain/Indicator: TA1537, Metabolic Activation: HAMSTER, LIVER, S-9, AROCLOR 1254 (10%), Method: PREINCUBATION
[11] = Test System: AMES SALMONELLA TYPHIMURIUM, Strain/Indicator: TA1537, Metabolic Activation: NONE, Method: PREINCUBATION
[12] = Test System: AMES SALMONELLA TYPHIMURIUM, Strain/Indicator: TA1537, Metabolic Activation: RAT, LIVER, S-9, AROCLOR 1254 (10%), Method: PREINCUBATION
[13] = Test System: AMES SALMONELLA TYPHIMURIUM, Strain/Indicator: TA100, Metabolic Activation: NONE, Method: STANDARD PLATE

OC/C(Br)=C(\Br)CO
mutagenic call [1]: active; positive | mutagenic call [2]: inactive; negative | mutagenic call [3]: active; positive | mutagenic call [4]: active; positive | mutagenic call [5]: inactive; negative | mutagenic call [6]: active; positive | mutagenic call [7]: active; positive | mutagenic call [8]: inactive; negative | mutagenic call [9]: active; positive | mutagenic call [10]: active; positive | mutagenic call [11]: inactive; negative | mutagenic call [12]: inactive; negative

Cn1ccnc1[N+](=O)[O-]
mutagenic call [13]: active; positive

O=NN1C(C(=O)O)CSC1C(O)C(O)C(O)C(O)CO (configuration not stated)
mutagenic call [2]: inactive; negative | mutagenic call (Test System: AMES SALMONELLA TYPHIMURIUM, Strain/Indicator: TA98, Metabolic Activation: NONE, Method: STANDARD PLATE): inactive; negative | mutagenic call [3]: inactive; negative | mutagenic call (Test System: AMES SALMONELLA TYPHIMURIUM, Strain/Indicator: TA98, Metabolic Activation: RAT, LIVER, S-9, AROCLOR 1254, Method: STANDARD PLATE): inactive; negative | mutagenic call [5]: inactive; negative | mutagenic call [13]: inactive; negative | mutagenic call (Test System: AMES SALMONELLA TYPHIMURIUM, Strain/Indicator: TA100, Metabolic Activation: RAT, LIVER, S-9, AROCLOR 1254, Method: PREINCUBATION): inactive; negative | mutagenic call (Test System: AMES SALMONELLA TYPHIMURIUM, Strain/Indicator: TA100, Metabolic Activation: RAT, LIVER, S-9, AROCLOR 1254, Method: STANDARD PLATE): inactive; negative

O=C(O)c1ccc(Cl)cc1Cl
mutagenic call (Test System: Ames Salmonella typhimurium, Strain/Indicator: TA98, Metabolic Activation: None, Method: Preincubation): inactive; negative. precipitation at highest dose. | mutagenic call (Test System: Ames Salmonella typhimurium, Strain/Indicator: TA98, Metabolic Activation: Rat, Liver, S9, Phenobarbital and 5,6-benzoflavone, Method: Preincubation): inactive; negative. precipitation at highest dose. | mutagenic call (Test System: Ames Salmonella typhimurium, Strain/Indicator: TA100, Metabolic Activation: None, Method: Preincubation): inactive; negative. precipitation at highest dose. | mutagenic call (Test System: Ames Salmonella typhimurium, Strain/Indicator: TA100, Metabolic Activation: Rat, Liver, S9, Phenobarbital and 5,6-benzoflavone, Method: Preincubation): inactive; negative. precipitation at highest dose. | mutagenic call (Test System: Ames Salmonella typhimurium, Strain/Indicator: TA1535, Metabolic Activation: None, Method: Preincubation): inactive; negative. precipitation at highest dose. | mutagenic call (Test System: Ames Salmonella typhimurium, Strain/Indicator: TA1535, Metabolic Activation: Rat, Liver, S9, Phenobarbital and 5,6-benzoflavone, Method: Preincubation): inactive; negative. precipitation at highest dose. | mutagenic call (Test System: Ames Salmonella typhimurium, Strain/Indicator: TA1537, Metabolic Activation: None, Method: Preincubation): inactive; negative. precipitation at highest dose. | mutagenic call (Test System: Ames Salmonella typhimurium, Strain/Indicator: TA1537, Metabolic Activation: Rat, Liver, S9, Phenobarbital and 5,6-benzoflavone, Method: Preincubation): inactive; negative. precipitation at highest dose. | mutagenic call (Test System: E. coli, Strain/Indicator: WP2uvrA/pKM101, Metabolic Activation: None, Method: Preincubation): inactive; negative. precipitation at highest dose. | mutagenic call (Test System: E. coli, Strain/Indicator: WP2uvrA/pKM101, Metabolic Activation: Rat, Liver, S9, Phenobarbital and 5,6-benzoflavone, Method: Preincubation): inactive; negative. precipitation at highest dose.

CC(C)CC(=O)N=c1sn(C(=O)CC(C)C)c2ccc([N+](=O)[O-])cc12
mutagenic call (Test System: AMES SALMONELLA TYPHIMURIUM, Strain/Indicator: TA100, Metabolic Activation: S-9, Method: STANDARD PLATE): active; positive

COc1ccc(Nc2c3ccccc3nc3ccccc23)cc1
mutagenic call (Test System: AMES SALMONELLA TYPHIMURIUM, Strain/Indicator: TA1537, Metabolic Activation: NONE, Method: STANDARD PLATE): active; positive

CC(=O)C(N=Nc1ccc(-c2ccc(N=NC(C(C)=O)C(=O)Nc3ccccc3)c(Cl)c2)cc1Cl)C(=O)Nc1ccccc1 (configuration not stated)
mutagenic call [1]: inactive; negative | mutagenic call [2]: inactive; negative | mutagenic call (Test System: AMES SALMONELLA TYPHIMURIUM, Strain/Indicator: TA98, Metabolic Activation: RAT, LIVER, S-9, AROCLOR 1254 (10%), Method: PREINCUBATION): inactive; negative | mutagenic call [4]: inactive; negative | mutagenic call [5]: inactive; negative | mutagenic call [6]: inactive; negative | mutagenic call [7]: inactive; negative | mutagenic call [8]: inactive; negative | mutagenic call [9]: inactive; negative | mutagenic call [10]: inactive; negative | mutagenic call [11]: inactive; negative | mutagenic call [12]: inactive; negative | mutagenic call (Test System: AMES SALMONELLA TYPHIMURIUM, Strain/Indicator: TA1538, Metabolic Activation: RAT, LIVER, S-9, AROCLOR 1254, Method: STANDARD PLATE): inactive; negative

O[C@@H]1c2cccc3ccc4cc5ccccc5c(c4c23)[C@H]1O
mutagenic call (Test System: CHINESE HAMSTER V-79, Strain/Indicator: V-79/8-AZAGUANINE, Metabolic Activation: NONE, Method: STANDARD PLATE): active; positive

CN1CSC(=S)N(C)C1
mutagenic call (End Point: In vivo micronucleus, Test System: Micronucleated polychromatic erythrocytes, Species: Mouse, Strain/Sex: NMRI / Males and females, Route: Oral): inactive; negative

CC(CN(CC(=O)O)CC(=O)O)N(CC(=O)O)CC(=O)O (configuration not stated)
mutagenic call (Test System: CHINESE HAMSTER V-79, Strain/Indicator: V-79/OUABAIN, Metabolic Activation: NONE, Method: STANDARD PLATE): active; positive | mutagenic call (Test System: UDS RODENT CELLS, Strain/Indicator: THY INCORP (NON-S-PHASE), Metabolic Activation: NONE, Method: AUTORADIOGRAPHY): active; positive

C[C@H](Br)C(=O)NCc1ccccc1
mutagenic call [13]: active; positive

CC(=O)ON(C(C)=O)c1ccc(/C=C/c2ccccc2)cc1
mutagenic call (Test System: CHINESE HAMSTER V-79, Strain/Indicator: V-79/6-THIOGUANINE, Metabolic Activation: NONE, Method: STANDARD PLATE): active; positive
